Assay results from patent publication US20260250318A1, “COMPOSITIONS AND METHODS FOR CROSSING THE BLOOD BRAIN BARRIER” (VOYAGER THERAPEUTICS, INC., priority 2022, published 2026).

What was measured:
brain = assay: Matured TTM-001 and TTM-002 variants, NGS enrichment in mouse brain; type: in vivo, mice; conditions: relative to AAV9 control
[1] = tested on: brains, heart, liver, muscle, and DRG of the NHPs; assay: Maturation of TTM-001 and TTM-002 capsids, NGS enrichment in NHP tissues; type: in vivo; conditions: relative to AAV9 control
In short: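 Variants carry mutations within and flanking the loop IV peptide insert: positions 450–466 were triplet-randomized, while positions 449–466 received low-frequency point mutations. The combined pool went into two NHPs, and each peptide was scored by NGS enrichment ratio against AAV9.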

[2] = NGS fold-enrichment of matured AAV capsid variants, NHP brain, RNA
[3] = NGS fold-enrichment, brain of mice
[4] = NGS fold-enrichment, DRG of NHPs
[5] = NGS fold-enrichment, RNA, brain of NHPs
[6] = NGS fold-enrichment, heart of NHPs
[7] = NGS fold-enrichment, liver DNA of NHPs
[8] = NGS fold-enrichment, liver RNA of NHPs
[9] = NGS fold-enrichment, muscle of NHPs
[10] = NGS fold-enrichment, mouse brain
[11] = NGS fold-enrichment of RNA, NHP brain
[12] = NGS fold-enrichment, NHP liver DNA
[13] = NGS fold-enrichment, NHP liver RNA
[14] = NGS fold-enrichment, NHP muscle

KTINGSGSPHSKAQYQNT
Fold Enrichment relative to AAV9, Brain (Mouse) (brain; mouse brain): 71.846 fold
Fold Enrichment relative to AAV9, Brain (NHP) [1, 2]: 50.099 fold
Fold Enrichment relative to AAV9, DRG (NHP) ([1]; NHP DRG): 0.000 fold
Fold Enrichment relative to AAV9, Heart (NHP) ([1]; NHP heart): 0.008 fold
Fold Enrichment relative to AAV9, Liver DNA (NHP) ([1]; NHP liver, DNA): 0.119 fold
Fold Enrichment relative to AAV9, Liver RNA (NHP) ([1]; NHP liver, RNA): 0.017 fold
Fold Enrichment relative to AAV9, Muscle (NHP) ([1]; NHP muscle): 0.000 fold

KTIIGSGSPHSKAQHQLT
Fold Enrichment relative to AAV9, Brain (Mouse) (brain; [3]): 100.144 fold
Fold Enrichment relative to AAV9, DRG (NHP) [1, 4]: 0.000 fold
Fold Enrichment relative to AAV9, Brain (NHP) [1, 5]: 72.291 fold
Fold Enrichment relative to AAV9, Heart (NHP) [1, 6]: 0.000 fold
Fold Enrichment relative to AAV9, Liver DNA (NHP) [1, 7]: 0.000 fold
Fold Enrichment relative to AAV9, Liver RNA (NHP) [1, 8]: 0.000 fold
Fold Enrichment relative to AAV9, Muscle (NHP) [1, 9]: 0.000 fold

ETINGSGSPHSKAQNLQT
Fold Enrichment relative to AAV9, Brain (Mouse) (brain; [3]): 107.216 fold
Fold Enrichment relative to AAV9, Brain (Mouse) (brain; [10]): 107.216 fold
Fold Enrichment relative to AAV9, Brain (NHP) [1, 11]: 90.969 fold
Fold Enrichment relative to AAV9, DRG (NHP) [1, 4]: 0.221 fold
Fold Enrichment relative to AAV9, DRG (NHP) ([1]; NGS fold-enrichment, NHP DRG): 0.221 fold
Fold Enrichment relative to AAV9, Heart (NHP) ([1]; NGS fold-enrichment, NHP heart): 1.023 fold
Fold Enrichment relative to AAV9, Liver DNA (NHP) [1, 12]: 0.813 fold
Fold Enrichment relative to AAV9, Liver RNA (NHP) [1, 13]: 0.179 fold
Fold Enrichment relative to AAV9, Muscle (NHP) [1, 14]: 0.197 fold
Fold Enrichment relative to AAV9, Brain (NHP) [1, 5]: 90.969 fold
Fold Enrichment relative to AAV9, Heart (NHP) [1, 6]: 1.023 fold
Fold Enrichment relative to AAV9, Liver DNA (NHP) [1, 7]: 0.813 fold
Fold Enrichment relative to AAV9, Liver RNA (NHP) [1, 8]: 0.179 fold
Fold Enrichment relative to AAV9, Muscle (NHP) [1, 9]: 0.197 fold

KTVNGNGSPHSKSQNQQT
Fold Enrichment relative to AAV9, Brain (Mouse) (brain; mouse brain): 95.384 fold
Fold Enrichment relative to AAV9, Brain (NHP) [1, 2]: 54.586 fold
Fold Enrichment relative to AAV9, DRG (NHP) ([1]; NHP DRG): 0.000 fold
Fold Enrichment relative to AAV9, Heart (NHP) ([1]; NHP heart): 0.000 fold
Fold Enrichment relative to AAV9, Liver DNA (NHP) ([1]; NHP liver, DNA): 0.168 fold
Fold Enrichment relative to AAV9, Liver RNA (NHP) ([1]; NHP liver, RNA): 0.256 fold
Fold Enrichment relative to AAV9, Muscle (NHP) ([1]; NHP muscle): 0.000 fold

KTINGSGSPHSKAQKLNT
Fold Enrichment relative to AAV9, Brain (Mouse) (brain; [3]): 68.637 fold
Fold Enrichment relative to AAV9, DRG (NHP) [1, 4]: 0.073 fold
Fold Enrichment relative to AAV9, Brain (NHP) [1, 5]: 67.782 fold
Fold Enrichment relative to AAV9, Heart (NHP) [1, 6]: 0.092 fold
Fold Enrichment relative to AAV9, Liver DNA (NHP) [1, 7]: 0.201 fold
Fold Enrichment relative to AAV9, Liver RNA (NHP) [1, 8]: 1.232 fold
Fold Enrichment relative to AAV9, Muscle (NHP) [1, 9]: 0.000 fold

KTINGSGSPHSKAQAFHT
Fold Enrichment relative to AAV9, Brain (Mouse) (brain; [3]): 86.268 fold
Fold Enrichment relative to AAV9, DRG (NHP) [1, 4]: 0.033 fold
Fold Enrichment relative to AAV9, Brain (NHP) [1, 5]: 70.159 fold
Fold Enrichment relative to AAV9, Heart (NHP) [1, 6]: 0.000 fold
Fold Enrichment relative to AAV9, Liver DNA (NHP) [1, 7]: 0.119 fold
Fold Enrichment relative to AAV9, Liver RNA (NHP) [1, 8]: 0.762 fold
Fold Enrichment relative to AAV9, Muscle (NHP) [1, 9]: 0.058 fold

KTDVGSGSPHSKAQNQQT
Fold Enrichment relative to AAV9, Brain (Mouse) (brain; mouse brain): 115.774 fold
Fold Enrichment relative to AAV9, Brain (NHP) [1, 2]: 51.849 fold
Fold Enrichment relative to AAV9, DRG (NHP) ([1]; NHP DRG): 0.000 fold
Fold Enrichment relative to AAV9, Heart (NHP) ([1]; NHP heart): 0.007 fold
Fold Enrichment relative to AAV9, Liver DNA (NHP) ([1]; NHP liver, DNA): 0.560 fold
Fold Enrichment relative to AAV9, Liver RNA (NHP) ([1]; NHP liver, RNA): 0.385 fold
Fold Enrichment relative to AAV9, Muscle (NHP) ([1]; NHP muscle): 0.000 fold

KTELWHDSPHKSGQNQQT
Fold Enrichment relative to AAV9, Brain (Mouse) (brain; [10]): 9.915 fold
Fold Enrichment relative to AAV9, Brain (NHP) [1, 11]: 85.323 fold
Fold Enrichment relative to AAV9, DRG (NHP) ([1]; NGS fold-enrichment, NHP DRG): 0.057 fold
Fold Enrichment relative to AAV9, Heart (NHP) ([1]; NGS fold-enrichment, NHP heart): 0.020 fold
Fold Enrichment relative to AAV9, Liver DNA (NHP) [1, 12]: 0.243 fold
Fold Enrichment relative to AAV9, Liver RNA (NHP) [1, 13]: 0.000 fold
Fold Enrichment relative to AAV9, Muscle (NHP) [1, 14]: 0.000 fold

KTINGGGSPHSKSQNQHT
Fold Enrichment relative to AAV9, Brain (Mouse) (brain; [3]): 100.748 fold
Fold Enrichment relative to AAV9, DRG (NHP) [1, 4]: 0.000 fold
Fold Enrichment relative to AAV9, Brain (NHP) [1, 5]: 67.773 fold
Fold Enrichment relative to AAV9, Heart (NHP) [1, 6]: 0.057 fold
Fold Enrichment relative to AAV9, Liver DNA (NHP) [1, 7]: 0.220 fold
Fold Enrichment relative to AAV9, Liver RNA (NHP) [1, 8]: 0.000 fold
Fold Enrichment relative to AAV9, Muscle (NHP) [1, 9]: 0.000 fold

KTVNGSGSPHSKAQHLQT
Fold Enrichment relative to AAV9, Brain (Mouse) (brain; mouse brain): 62.743 fold
Fold Enrichment relative to AAV9, Brain (NHP) [1, 2]: 55.739 fold
Fold Enrichment relative to AAV9, DRG (NHP) ([1]; NHP DRG): 0.091 fold
Fold Enrichment relative to AAV9, Heart (NHP) ([1]; NHP heart): 0.036 fold
Fold Enrichment relative to AAV9, Liver DNA (NHP) ([1]; NHP liver, DNA): 0.409 fold
Fold Enrichment relative to AAV9, Liver RNA (NHP) ([1]; NHP liver, RNA): 0.062 fold
Fold Enrichment relative to AAV9, Muscle (NHP) ([1]; NHP muscle): 0.000 fold

KTSNASGSPHSKAQHQQT
Fold Enrichment relative to AAV9, Brain (Mouse) (brain; [10]): 40.558 fold
Fold Enrichment relative to AAV9, Brain (NHP) [1, 11]: 165.206 fold
Fold Enrichment relative to AAV9, DRG (NHP) ([1]; NGS fold-enrichment, NHP DRG): 0.000 fold
Fold Enrichment relative to AAV9, Heart (NHP) ([1]; NGS fold-enrichment, NHP heart): 0.000 fold
Fold Enrichment relative to AAV9, Liver DNA (NHP) [1, 12]: 0.082 fold
Fold Enrichment relative to AAV9, Liver RNA (NHP) [1, 13]: 0.000 fold
Fold Enrichment relative to AAV9, Muscle (NHP) [1, 14]: 0.000 fold

KTVNGHDSPHKSRQSQQT
Fold Enrichment relative to AAV9, Brain (Mouse) (brain; [10]): 8.136 fold
Fold Enrichment relative to AAV9, Brain (NHP) [1, 11]: 76.458 fold
Fold Enrichment relative to AAV9, DRG (NHP) ([1]; NGS fold-enrichment, NHP DRG): 0.000 fold
Fold Enrichment relative to AAV9, Heart (NHP) ([1]; NGS fold-enrichment, NHP heart): 0.063 fold
Fold Enrichment relative to AAV9, Liver DNA (NHP) [1, 12]: 0.021 fold
Fold Enrichment relative to AAV9, Liver RNA (NHP) [1, 13]: 0.000 fold
Fold Enrichment relative to AAV9, Muscle (NHP) [1, 14]: 0.000 fold

KTVHGNGSPHSKAQNQQT
Fold Enrichment relative to AAV9, Brain (Mouse) (brain; [3]): 97.003 fold
Fold Enrichment relative to AAV9, Brain (Mouse) (brain; [10]): 97.003 fold
Fold Enrichment relative to AAV9, Brain (NHP) [1, 11]: 90.073 fold
Fold Enrichment relative to AAV9, DRG (NHP) [1, 4]: 0.000 fold
Fold Enrichment relative to AAV9, DRG (NHP) ([1]; NGS fold-enrichment, NHP DRG): 0.000 fold
Fold Enrichment relative to AAV9, Heart (NHP) ([1]; NGS fold-enrichment, NHP heart): 0.000 fold
Fold Enrichment relative to AAV9, Liver DNA (NHP) [1, 12]: 0.304 fold
Fold Enrichment relative to AAV9, Liver RNA (NHP) [1, 13]: 0.000 fold
Fold Enrichment relative to AAV9, Muscle (NHP) [1, 14]: 0.000 fold
Fold Enrichment relative to AAV9, Brain (NHP) [1, 5]: 90.073 fold
Fold Enrichment relative to AAV9, Heart (NHP) [1, 6]: 0.000 fold
Fold Enrichment relative to AAV9, Liver DNA (NHP) [1, 7]: 0.304 fold
Fold Enrichment relative to AAV9, Liver RNA (NHP) [1, 8]: 0.000 fold
Fold Enrichment relative to AAV9, Muscle (NHP) [1, 9]: 0.000 fold

KTIDGSGSPHSKAQNQQH
Fold Enrichment relative to AAV9, Brain (Mouse) (brain; [3]): 57.914 fold
Fold Enrichment relative to AAV9, Brain (Mouse) (brain; [10]): 57.914 fold
Fold Enrichment relative to AAV9, Brain (NHP) [1, 11]: 79.090 fold
Fold Enrichment relative to AAV9, DRG (NHP) [1, 4]: 0.000 fold
Fold Enrichment relative to AAV9, DRG (NHP) ([1]; NGS fold-enrichment, NHP DRG): 0.000 fold
Fold Enrichment relative to AAV9, Heart (NHP) ([1]; NGS fold-enrichment, NHP heart): 0.000 fold
Fold Enrichment relative to AAV9, Liver DNA (NHP) [1, 12]: 0.049 fold
Fold Enrichment relative to AAV9, Liver RNA (NHP) [1, 13]: 0.136 fold
Fold Enrichment relative to AAV9, Muscle (NHP) [1, 14]: 0.000 fold
Fold Enrichment relative to AAV9, Brain (NHP) [1, 5]: 79.090 fold
Fold Enrichment relative to AAV9, Heart (NHP) [1, 6]: 0.000 fold
Fold Enrichment relative to AAV9, Liver DNA (NHP) [1, 7]: 0.049 fold
Fold Enrichment relative to AAV9, Liver RNA (NHP) [1, 8]: 0.136 fold
Fold Enrichment relative to AAV9, Muscle (NHP) [1, 9]: 0.000 fold

KTINGNGSPHSKAQNPLT
Fold Enrichment relative to AAV9, Brain (Mouse) (brain; [3]): 53.583 fold
Fold Enrichment relative to AAV9, Brain (Mouse) (brain; [10]): 53.583 fold
Fold Enrichment relative to AAV9, Brain (NHP) [1, 11]: 75.269 fold
Fold Enrichment relative to AAV9, DRG (NHP) [1, 4]: 0.000 fold
Fold Enrichment relative to AAV9, DRG (NHP) ([1]; NGS fold-enrichment, NHP DRG): 0.000 fold
Fold Enrichment relative to AAV9, Heart (NHP) ([1]; NGS fold-enrichment, NHP heart): 0.000 fold
Fold Enrichment relative to AAV9, Liver DNA (NHP) [1, 12]: 0.000 fold
Fold Enrichment relative to AAV9, Liver RNA (NHP) [1, 13]: 0.366 fold
Fold Enrichment relative to AAV9, Muscle (NHP) [1, 14]: 0.000 fold
Fold Enrichment relative to AAV9, Brain (NHP) [1, 5]: 75.269 fold
Fold Enrichment relative to AAV9, Heart (NHP) [1, 6]: 0.000 fold
Fold Enrichment relative to AAV9, Liver DNA (NHP) [1, 7]: 0.000 fold
Fold Enrichment relative to AAV9, Liver RNA (NHP) [1, 8]: 0.366 fold
Fold Enrichment relative to AAV9, Muscle (NHP) [1, 9]: 0.000 fold
